Conditions: ethyl acetate and n-heptane 1:9, 25° C., 500 rpm, 24 hours
Source text: X-ray powder diffraction pattern in the present invention was acquired by a Panalytical Empyrean X-ray powder diffractometer. The parameters of the X-ray powder diffraction method of the present invention were as follows: • X-ray Reflection: Cu, Kα • Kα1 (Å): 1.540598; Kα2 (Å): 1.544426 • Kα2/Kα1 intensity ratio: 0.50 • Voltage: 45 (kV) • Current: 40 (mA) • Scan range: from 3.0 degree to 40.0 degree The pattern of differential scanning calorimetry (DSC) in the present invention was acquired by a TA Q200. The parameters of the differential scanning calorimetry (DSC) method of the present invention were as follow: • Heating rate: 10° C./min • Purge gas: nitrogen. The pattern of thermal gravimetric analysis (TGA) in the present invention was acquired by a TA Q5000. The parameters of the thermal gravimetric analysis (TGA) method of the present invention were as follow: • Heating rate: 10° C./min; • Purge gas: nitrogen.
The suspension was stirred at 500 rpm in a thermostat at 25° C. for 24 hours, and centrifuged to give a solid which was tested by XRPD.

CC[C@H]1[C@@H](O)[C@@H]2[C@H](CC[C@]3(C)[C@@H]([C@H](C)CCC(=O)O)CC[C@@H]23)[C@@]2(C)CC[C@@H](O)C[C@@H]12 [Form C, obeticholic acid]
Crystal form after stirring the suspension (form conversion by XRPD): transferred to crystalline Form A
